According to ChEMBL document CHEMBL1828530, “Quinonoid and phenazine compounds: synthesis and evaluation against H37Rv, rifampicin and isoniazid-resistance strains of Mycobacterium tuberculosis” (Eur J Med Chem, 2011):
In brackets after ≈: the same amount, converted by molar mass.

Columns and labels:
[1] = test system: Mycobacterium tuberculosis; test: Antitubercular activity against rifampicin-resistant Mycobacterium tuberculosis ATCC 35338 harboring His-526-Tri mutation in rpoB gene after 9 days by resazurin reduction assay; assay type: functional
[2] = test system: Mycobacterium tuberculosis; test: Antitubercular activity against isoniazid-resistant Mycobacterium tuberculosis ATCC 35822 harboring Ser-315-Tri mutation in katG gene after 9 days by resazurin reduction assay; assay type: functional

Structure (SMILES) | MIC [1] [µM] | MIC [2] [µM]
C=CCC1=C(OC2(CC=C)C(=O)c3ccccc3-c3nc4ccccc4nc32)C(=O)c2ccccc2C1=O (stereo not drawn) | >200.8 | >200.8
CCCC1=C(OC2(CCC)C(=O)C3=C(CCCC3)c3nc4ccccc4nc32)C(=O)C2=C(CCCC2)C1=O (stereo not drawn) | 195.7 (≈ 99.9 µg/mL) | >195.7
CC(C)CCC1=C(OC2(CCC(C)C)C(=O)c3ccccc3-c3nc4ccccc4nc32)C(=O)c2ccccc2C1=O (stereo not drawn) | >178.9 | >178.9
C=CCc1c2[nH]c3ccccc3nc-2c2ccccc2c1=O | 174.8 (≈ 50.1 µg/mL) | 43.7 (≈ 12.5 µg/mL)
CC(C)CC1=C(O)C(=O)c2ccccc2C1=O | 108.7 (≈ 25 µg/mL) | 217.4 (≈ 50.1 µg/mL)
CCCC1=C(O)C(=O)C2=C(CCCC2)C1=O | 113.5 (≈ 25 µg/mL) | 113.5 (≈ 25 µg/mL)
CC(C)CCc1c2[nH]c3ccccc3nc-2c2c(c1=O)CCCC2 | 39.1 (≈ 12.5 µg/mL) | >312.5
CC(C)CC1=C(O)C(=O)C2=C(CCCC2)C1=O | 53.35 (≈ 12.5 µg/mL) | 106.7 (≈ 25 µg/mL)
CCCC1=C(O)C(=O)c2ccccc2C1=O | 231.25 (≈ 50 µg/mL) | 462.5 (≈ 100 µg/mL)
CC(C)CCC1=C(O)C(=O)c2ccccc2C1=O | 205 (≈ 50.1 µg/mL) | 205 (≈ 50.1 µg/mL)
CC(C)CCC1=C(OC2(CCC(C)C)C(=O)C3=C(CCCC3)c3nc4ccccc4nc32)C(=O)C2=C(CCCC2)C1=O (stereo not drawn) | 176.4 (≈ 100 µg/mL) | >176.4
CC(C)=CCC1=C(O)C(=O)c2ccccc2C1=O [LAPACHOL] | 206.6 (≈ 50.1 µg/mL) | 413.2 (≈ 100 µg/mL)
CO[C@H]1/C=C/O[C@@]2(C)Oc3c(C)c(O)c4c(O)c(c(/C=N/N5CCN(C)CC5)c(O)c4c3C2=O)NC(=O)/C(C)=C\C=C\[C@H](C)[C@H](O)[C@@H](C)[C@@H](O)[C@@H](C)[C@H](OC(C)=O)[C@@H]1C [RIFAMPIN] | 2.43 (≈ 2 µg/mL) | –
CC(C)CC1=C(OC2(CC(C)C)C(=O)c3ccccc3-c3nc4ccccc4nc32)C(=O)c2ccccc2C1=O (stereo not drawn) | >188.3 | >188.3
CC(C)Cc1c2[nH]c3ccccc3nc-2c2c(c1=O)CCCC2 | >326.8 | >326.8
CC(C)=CCC1=C(OC2(CC=C(C)C)C(=O)c3ccccc3-c3nc4ccccc4nc32)C(=O)c2ccccc2C1=O (stereo not drawn) | 180.2 (≈ 99.9 µg/mL) | >180.2
CC(C)=Cc1c2[nH]c3ccccc3nc-2c2ccccc2c1=O | 83.3 (≈ 25 µg/mL) | 83.3 (≈ 25 µg/mL)
CC(C)CC1=C(OC2(CC(C)C)C(=O)C3=C(CCCC3)c3nc4ccccc4nc32)C(=O)C2=C(CCCC2)C1=O (stereo not drawn) | 46.4 (≈ 25 µg/mL) | 46.4 (≈ 25 µg/mL)
NNC(=O)c1ccncc1 [ISONIAZID] | – | 1.45 (≈ 0.199 µg/mL)
CC(C)Cc1c2[nH]c3ccccc3nc-2c2ccccc2c1=O | >331.1 | >331.1
CC(C)CCc1c2[nH]c3ccccc3nc-2c2ccccc2c1=O | 39.5 (≈ 12.5 µg/mL) | 39.5 (≈ 12.5 µg/mL)
CCCC1=C(OC2(CCC)C(=O)c3ccccc3-c3nc4ccccc4nc32)C(=O)c2ccccc2C1=O (stereo not drawn) | >198.8 | >198.8
CC(C)CCC1=C(O)C(=O)C2=C(CCCC2)C1=O | 50.4 (≈ 12.5 µg/mL) | 100.8 (≈ 25 µg/mL)
CC(C)=CC1=C(O)C(=O)c2ccccc2C1=O | 13.7 (≈ 3.13 µg/mL) | 438.6 (≈ 100 µg/mL)
C=CCC1=C(O)C(=O)c2ccccc2C1=O | 116.8 (≈ 25 µg/mL) | 467.3 (≈ 100 µg/mL)
